Assays:
[1] = test system: Staphylococcus aureus ATCC 6535; experiment: Microorganism count in 2% and 0.2% ester emulsions (Example 13); format: cell-based
Protocol: Both of the emulsions included egg-yolk phospholipide 1,2% and sterile water, in addition to ester. The emulsions were prepared aseptically, by emulsifying sterile-filtered ester with a sterilized dispersion of egg-yolk phospholipids.
Aliquots of these emulsions were diluted with phosphate buffer (0.01 M, pH=7.0), in the proportions of 1 and 100 in respective emulsions. Staphylococcus aureus ATCC 6535 was then added to the emulsions. The samples were then incubated at +37°C for 20 hours. The microorganism count was carried out after 1-5 minutes, 2 and 20 hours, in the manner described in microbiological literature. Parallel with the above experiments, a check was made on the phospholipid solution 1,2% and TSB (Tryptone soya broth), by adding Staphylococcus aureus ATCC 6535. The latter substrate was tested to ascertain whether the controlled microorganisms were viable. […] The starting concentration was about 5x10³. […] After 2 hours, the number of microorganisms was 0 and 10 respectively, and after 20 hours 0 and 0 respectively. In the samples containing 5-methyl-3-oxo-hexanoic acid ethyl ester with concentrations of 2% and 0.2%, the number of microorganisms per ml present after 1-5 minutes was 10⁴, after 2 hours 0 and 100 respectively, and after 20 hours 0 and 0 respec tively.

Energy density = format: physicochemical
[2] = test system: Escherichia coli ATCC 8739; experiment: Microorganism count in ester emulsions diluted with phosphate buffer, albumin solution or TSB (Example 16); format: cell-based
Protocol: The emulsions contained egg-yolk phospholipid 1,2% and sterile water in addition to ester. The emulsions were prepared aseptically, by emulsifying sterile-filtered ester with a sterilized dispersion of egg-yolk phospholipids.
Aliquots of these emulsions were diluted at a ratio of 1 to 10 with phosphate buffer (0.01 M, pH=7.0), seruma albumin solution 20% and Tryptone soya broth (TSB) respectively. Escherichia coli ATCC 8739 were added to the emulsions. The emulsions were then incubated for 20 hours at +37°C. The microorganism count was carried out after 1-5 minutes, 2 hours and 20 hours, in the manner described in microbiological literature. Parallel with the above tests, there was made a control of phosphate buffer and TSB with additions of Escherichia coli ATCC 8739. The latter substrate was tested to ascertain whether or not the microorganisms were viable. […] The starting concentration was about 10⁴. In the samples containing 4-methyl-3-oxo-pentanoic acid ethyl ester, the combination with phosphate buffer was 0 after 5 minutes, 0 after 2 hours and 0 after 20 hours. In the combination with 20% albumin solution, the microorganism count was 0 after 5 minutes, no count was taken after 2 hours, and 0 after 20 hours. […], the count in the combination with TSB was 0, no count was taken after 2 hours, and 0 after 20 hours.
In the samples containing 5-methyl-3-oxo-hexanoic acid ethyl ester, the count in the combination with phosphate buffer was 10 after 5 minutes, 0 after 2 hours, and 0 after 20 hours. The combination with 20% albumin solution was 10² after 5 minutes, no count was taken after 2 hours, and 0 after 20 hours. In the combination with TSB, the count was 10 after 5 minutes, no count was taken after 2 hours, and 0 after 20 hours. […] All microorganisms were eliminated within 20 hours by both esters at the same low concentration.

[3] = test system: Escherichia coli ATCC 8739; experiment: Microorganism count in 2% and 0.2% ester emulsions (Example 14); format: cell-based; settings: for number of microorganisms: after 1-5 minutes, +37°C, starting concentration about 10⁴
Protocol: The emulsions contained egg-yolk phospholipid 1,2% and sterile water, in addition to ester. The emulsions were prepared aseptically, by emulsifying sterile-filtered ester with a steriled dispersion of egg-yolk phospholipids.
Aliquots of these emulsions were diluted with phosphate buffer (0.01 M, pH=7.0) in the proportions of 1 and 10 and 1 and 100 in respective emulsions. Escherichia coli ATCC 8739 was added to the solutions. The solutions were then incubated at +37°C for 20 hours. The microorganism count was carried out after 1-5 minutes, 2 and 20 hours, in the manner described in microbiological literature. Parallel with the above tests, a check was carried out on phospholipide solution 1,2% and TSB (Tryptone soya broth) with additions of Escherichia coli ATCC 8739. The latter substrate was tested to ascertain whether or not the control microorganisms were viable. […] The starting concentration was about 10⁴. In the samples containing 4-methyl-3-oxo-pentanoic acid ethyl ester having the concentrations of 2% and 0.2%, the number of microorganisms present per ml after 1-5 minutes was 0 and 10⁴ respectively. After 2 hours, the microorganism count was 0 and 10 respectively, and after 20 hours 0 and 10 respectively. In the samples containing 5-methyl-3-oxo-hexanoic acid ethyl ester with the concentrations of 2% and 0.2%, the microorganism count per ml was 10 and 10 respectively after 1-5 minutes, 0 and 0 respectively after 2 hours, and 0 and 0 respectively after 20 hours.

[4] = test system: Candida albicans ATCC 10231; experiment: Microorganism count in 2% and 0.2% ester emulsions (Example 15); format: cell-based; settings: after 20 hours
Protocol: The emulsions contained egg-yolk phospholipid 1,2% and sterile water, in addition to ester. The emulsions were prepared aseptically, by emulsifying sterile-filtered ester with a sterilized dispersion of egg-yolk phospholipids.
Aliquots of these emulsions were diluted with phosphate buffer (0.01 M, pH=7.0) in the proportions of 1 and 10 and 1 and 100 of respective emulsions. Candida albicans ATCC 10231 was added to the emulsions. The samples were then incubated at +37°C for 20 hours. The microorganism count was carried out after […], 2 and 20 hours, in the manner described in microbiological literature. Parallel with the above tests, a check was made on phospholipide solution 1,2% and TSB (Tryptone soya broth) with additions Candida albicans ATCC 10231. The latter substrate was tested to ascertain whether or not the microorganisms were viable. After 20 hours, the microorganism count/ml in TSB was 10⁷, and in the phospholipid solution 10⁴. The starting concentration was about 10⁴. After 1-5 minutes, the microorganism count per […] of the tests containing 4-methyl-3-oxo-pentanoic acid ethyl ester with concentrations of 2% and 0.2% was 10⁴ and 10⁴ respectively. After 2 hours, the microorganism count was 10² and 10⁴ respectively, and after 20 hours 0 and 10⁴. […] After 20 hours, the count was 0 and 10² respectively.

[5] = 20% emulsion diluted 1 to 10 with phosphate buffer, after 5 minutes, starting concentration about 10⁴
[6] = diluted 1 to 10 with 20% albumin solution, after 20 hours
[7] = diluted 1 to 10 with TSB, after 20 hours
[8] = diluted 1 to 10 with phosphate buffer, after 2 hours
[9] = diluted 1 to 10 with phosphate buffer, after 20 hours

SMILES	number of microorganisms ([1]; 0.2%, after 2 hours)	number of microorganisms ([1]; 0.2%, after 20 hours)	number of microorganisms ([1]; 2%, after 2 hours)	number of microorganisms ([1]; 2%, after 20 hours)	energy density (Energy density)	microorganism count [2, 5]	microorganism count [2, 6]	microorganism count [2, 7]	microorganism count [2, 8]	microorganism count [2, 9]	microorganism count ([3]; 0.2%, after 2 hours)	microorganism count ([3]; 0.2%, after 20 hours)	number of microorganisms ([3]; 2%)	microorganism count ([3]; 2%, after 2 hours)	microorganism count ([3]; 2%, after 20 hours)	microorganism count [4]	further results
CCOC(=O)CC(=O)C(C)C [4-methyl-3-oxo-pentanoic acid ethyl ester]	10 per ml	0 per ml	0 per ml	0 per ml	27.94 kJ/g	0	0	0	0	0	10 per ml	10 per ml	0 per ml	0 per ml	0 per ml	0 per ml	number of microorganisms ([1]; 2%, after 1-5 minutes, +37°C, starting concentration about 5x10³): 100 per ml; microorganism count ([2]; diluted 1 to 10 with 20% albumin solution, after 5 minutes): 0; microorganism count ([2]; diluted 1 to 10 with TSB, after 4 hours): 0
CCOC(=O)CC(=O)CC(C)C [5-methyl-3-oxo-hexanoic acid ethyl ester]	100 per ml	0 per ml	0 per ml	0 per ml	29.24 kJ/g	10	0	0	0	0	0 per ml	0 per ml	10 per ml	0 per ml	0 per ml	0 per ml	microorganism count ([2]; diluted 1 to 10 with TSB, after 5 minutes): 10; number of microorganisms ([3]; 0.2%): 10 per ml

From EP0366632A1, “Alternative energy substrates” (priority 1988, dated 1990)
